Reference: patent US20040009485A1, “Cellular arrays for the identification of altered gene expression” (priority 2002, published 2004)

Key:
Assay type in all cases: cell-based, E. coli
[1] = tested on: luxCDABE gene fusions of the Lux-A Collection; assay: Induction of Lux-A Collection gene fusions by MMC (and yebF fusion by nalidixic acid); details: light-producing transformants with inverted insert (20% of them)
Procedure: The Lux-A Collection of reporter gene fusions was examined for presence of fusions to the genes in Table 11. […] Each of these was tested for induction by MMC at several doses over a time course of 100 minutes.
As expected, the expression of the known SOS genes was elevated; however the expression of several was elevated less than 2-fold (Table 12) and as such were within a large group of 792 genes the expression of which was elevated by 20% or more. Most of these are likely due to artifacts in the array data rather than to actual biologically relevant responses. To test if strains carrying luxCDABE gene fusions would yield the expected positive result, the three gene fusions that were available in the Lux-A Collection of reporter gene fusions were tested for mitomycin C responses.
In this case, a divergent promoter to the purT gene was present in the chromosomal fragment and strains containing the backward yebF fusion produced light. […] […] The orientation of the inserted segment to yield a fusion of yebF to the luxCDABE operon was confirmed by DNA sequence analysis.

[2] = tested on: Luxarray 0.5 reporter clones; assay: Luxarray 0.5 solid phase perturbation with nalidixic acid (luminometer); details: 1 and 5 μg/ml plates, 2 hrs
Procedure: A solid phase assay system consisting of reporter clones growing in the presence or absence of a perturbation, biological, environmental was developed. This was accomplished by growing the reporters on a porous membrane (Biodyne B, Nunc) seated on top of solid growth media in a culture dish (OmniTray, Nunc). Luminescence was measured either by a luminometer or by creating an image of the entire culture and quantitating the pixel density. Effects of perturbants can be determined by comparison of luminescence generated by treated and control cultures. Growth on the surface of the membrane allows the reporter assay to be moved between conditions as required. […]
Membranes were sterilized with UV illumination for 10 min then placed in contact with prewarmed media in a culture dish. […] Luminescence data was collected for each spot for 40 cycles of 20 min duration (overnight). […] Without exception, the signal strength measured corroborated the data obtained in liquid culture. […]
Next the system was evaluated for its ability to determine responses to perturbation, in this case, DNA damage caused by nalidixic acid Parental clone and two nonresponding reporters, osmY, and lacZYA, and three DNA damage responsive reporters, uvrA, recA, dinG, were chosen. […] The membranes were moved to new, pre-warmed plates containing varying amounts of nalidixic acid and light readings collected with an ML3000 luminometer. […]

luxCDABE gene fusions = assay: Retest of nalidixic acid upregulated gene fusions in liquid medium; details: for Liquid expt. NA/LB t = 2 hr: at conc of max induction; for # of conc with >1.5 fold up: seven conc 80-1.2 μg/ml
Procedure: Several concentrations of nalidixic acid were used because the differences in responses between liquid and solid growth were not known. Light production of 100 μl duplicate cultures at 37° C. was quantitated using a 96 well plate luminometer (Luminoskan Ascent, Labsystems). […] It should be noted that the liquid medium tests were not corrected for growth inhibition by nalidixic acid.

[3] = tested on: luxCDABE gene fusions in lexAind host; assay: Mitomycin C and nalidixic acid responses in lexAind host; details: for NA Ratio, 2 hr 10 ug/ml: lexAind host
Procedure: In addition, the effect of a lexAind mutation was tested to determine if any of these were part of the SOS regulon. The expectation is that SOS regulon member will be induced by both nalidixic acid and mitomycin C in a manner that is dependent on lexA function (Walker, G. C., (1996) Escherichia coli and Salmonella: Cellular and Molecular Biology ASM Press). […] This is consistent with the observation of upregulation of the b1728 mRNA transcript upon mitomycin C treatment in a LexA dependent fashion (Fernández de Henestrosa et al. (2000). Mol. Microbiol. 35:1560-1572). Likewise, two Gene fusions, those to oraA and yigN were identified is new members of the SOS regulon (Table 16). […] Negative, non-DNA damage responsive gene fusions were also included (Table 16).

[4] = 1pxA 1pxB rnhB dnaE fusion (lux-a.pk061.c3)
[5] = dinG ybiB fusion (lux-a.pk0024.f5)
[6] = frvR frvX frvB frvA fusion (lux-a.pk046.e6)
[7] = yfhJ fdx hscA yfhE fusion (lux-a.pk0019.g2)

Structure (SMILES): CCn1cc(C(=O)O)c(=O)c2ccc(C)nc21 [Nalidixic acid, nalidixic acid]
- induction of bioluminescence of inverted yebF-luxCDABE fusion [1]: highly induced
- bioluminescence on solid medium ([2]; SOS regulon reporters uvrA, recA, dinG): increased bioluminescence
- bioluminescence on solid medium ([2]; non-DNA damage responsive fusions osmY and lacZYA): unaffected
- Nal conc of max induction in liquid (luxCDABE gene fusions; [4]): 2.5 µg/mL
- Liquid expt. NA/LB t = 2 hr (luxCDABE gene fusions; [4]): 1.82
- # of conc with >1.5 fold up (luxCDABE gene fusions; [4]): 3
- Nal conc of max induction in liquid (luxCDABE gene fusions; b1728 fusion (lux-a.pk033.c5)): 5 µg/mL
- Liquid expt. NA/LB t = 2 hr (luxCDABE gene fusions; b1728 fusion (lux-a.pk033.c5)): 3.67
- # of conc with >1.5 fold up (luxCDABE gene fusions; b1728 fusion (lux-a.pk033.c5)): 7
- Nal conc of max induction in liquid (luxCDABE gene fusions; b1936 fusion (lux-a.pk0019.g1)): 10 µg/mL
- Liquid expt. NA/LB t = 2 hr (luxCDABE gene fusions; b1936 fusion (lux-a.pk0019.g1)): 2.34
- # of conc with >1.5 fold up (luxCDABE gene fusions; b1936 fusion (lux-a.pk0019.g1)): 6
- Nal conc of max induction in liquid (luxCDABE gene fusions; [5]): 5 µg/mL
- Liquid expt. NA/LB t = 2 hr (luxCDABE gene fusions; [5]): 4.18
- # of conc with >1.5 fold up (luxCDABE gene fusions; [5]): 6
- Nal conc of max induction in liquid (luxCDABE gene fusions; dinP fusion (lux-a.pk055.a3)): 5 µg/mL
- Liquid expt. NA/LB t = 2 hr (luxCDABE gene fusions; dinP fusion (lux-a.pk055.a3)): 7.60
- # of conc with >1.5 fold up (luxCDABE gene fusions; dinP fusion (lux-a.pk055.a3)): 7
- Nal conc of max induction in liquid (luxCDABE gene fusions; [6]): 20 µg/mL
- Liquid expt. NA/LB t = 2 hr (luxCDABE gene fusions; [6]): 1.46
- # of conc with >1.5 fold up (luxCDABE gene fusions; [6]): 0
- Nal conc of max induction in liquid (luxCDABE gene fusions; fusion (lux-a.pk0015.d6)): 20 µg/mL
- Liquid expt. NA/LB t = 2 hr (luxCDABE gene fusions; fusion (lux-a.pk0015.d6)): 2.71
- # of conc with >1.5 fold up (luxCDABE gene fusions; fusion (lux-a.pk0015.d6)): 6
- Nal conc of max induction in liquid (luxCDABE gene fusions; oraA fusion (lux-a.pk058.f5)): 10 µg/mL
- Liquid expt. NA/LB t = 2 hr (luxCDABE gene fusions; oraA fusion (lux-a.pk058.f5)): 7.19
- # of conc with >1.5 fold up (luxCDABE gene fusions; oraA fusion (lux-a.pk058.f5)): 7
- Nal conc of max induction in liquid (luxCDABE gene fusions; yaaF fusion (lux-a.pk031.e7)): 2.5 µg/mL
- Liquid expt. NA/LB t = 2 hr (luxCDABE gene fusions; yaaF fusion (lux-a.pk031.e7)): 1.85
- # of conc with >1.5 fold up (luxCDABE gene fusions; yaaF fusion (lux-a.pk031.e7)): 3
- Nal conc of max induction in liquid (luxCDABE gene fusions; [7]): 1.2 µg/mL
- Liquid expt. NA/LB t = 2 hr (luxCDABE gene fusions; [7]): 1.02
- # of conc with >1.5 fold up (luxCDABE gene fusions; [7]): 0
- Nal conc of max induction in liquid (luxCDABE gene fusions; yigN fusion (lux-a.pk046.f11)): 1.2 µg/mL
- Liquid expt. NA/LB t = 2 hr (luxCDABE gene fusions; yigN fusion (lux-a.pk046.f11)): 2.54
- # of conc with >1.5 fold up (luxCDABE gene fusions; yigN fusion (lux-a.pk046.f11)): 5
- NA Ratio, 2 hr 10 ug/ml [3, 4]: 2.39
- NA Ratio, 2 hr 10 ug/ml ([3]; b1728 fusion (lux-a.pk033.c5)): 0.40
- NA Ratio, 2 hr 10 ug/ml ([3]; b1936 fusion (lux-a.pk0019.g1)): 1.55
- NA Ratio, 2 hr 10 ug/ml [3, 5]: 0.97
- NA Ratio, 2 hr 10 ug/ml ([3]; fusion (lux-a.pk0015.d6)): 2.29
- NA Ratio, 2 hr 10 ug/ml ([3]; lacZ fusion (65.d4), negative control): 1.05
- induction of b1728 promoter-luxCDABE fusion ([3]; lexAind host strain (FIG. 9)): not induced
- NA Ratio, 2 hr 10 ug/ml ([3]; oraA fusion (lux-a.pk058.f5)): 1.06
- NA Ratio, 2 hr 10 ug/ml ([3]; yaaF fusion (lux-a.pk031.e7)): 1.19
- NA Ratio, 2 hr 10 ug/ml ([3]; yciG fusion (lux-a.pk006.b4), negative control): 0.67
- NA Ratio, 2 hr 10 ug/ml ([3]; yigN fusion (lux-a.pk046.f11)): 0.59
